Laboratory results from ChEMBL document CHEMBL4699496, “Exploring efficacy of natural-derived acetylphenol scaffold inhibitors for α-glucosidase: Synthesis, in vitro and in vivo biochemical studies” (Bioorg Med Chem Lett, 2020).
Activity calls are given as the source filed them. The rule behind the calls is not given here.

Legend:
Rattus norvegicus [1] = organism: Rattus norvegicus; experiment: Inhibition of alpha-glucosidase in rat everted intestinal sleeves assessed as reduction in glucose concentration within intestinal sleeves at 0.5 mM measured for 5 to 90 mins; assay type: tissue-based; conditions: Intestine, time min 5-90
[2] = Inhibition of alpha-glucosidase (unknown origin); parameters: species or system Homo sapiens; conditions: read-out: IC50
Mus musculus [3] = organism: Mus musculus; experiment: Hypoglycemic activity in Kunming mouse assessed as reduction in maltose-induced postprandial blood glucose level measured after 15 to 120 mins by maltose loading test; assay type: functional, organism-based; conditions: time min 15-120
Mus musculus [4] = organism: Mus musculus; experiment: Hypoglycemic activity in Kunming mouse assessed as reduction in maltose-induced blood glucose AUC (0 to 120 mins) by maltose loading test; assay type: functional, organism-based; conditions: time min 0-120
Rattus norvegicus [5] = organism: Rattus norvegicus; experiment: Inhibition of alpha-glucosidase in rat everted intestinal sleeves assessed as reduction in glucose concentration outside of the intestinal sleeves at 0.5 mM measured after 5 to 90 mins; assay type: tissue-based; conditions: Intestine, time min 5-90
Rattus norvegicus [6] = organism: Rattus norvegicus; experiment: Inhibition of alpha-glucosidase in rat everted intestinal sleeves assessed as reduction in blood glucose AUC (0-90) within intestinal sleeves at 0.5 mM; assay type: tissue-based; conditions: Intestine, time min 0-90
Rattus norvegicus [7] = organism: Rattus norvegicus; experiment: Inhibition of alpha-glucosidase in rat everted intestinal sleeves assessed as reduction in blood glucose AUC (0-90) outside of the intestinal sleeves at 0.5 mM; assay type: tissue-based; conditions: Intestine, time min 0-90

inhibition (Rattus norvegicus [1]): Active
IC50 [2]: 57 µM
inhibition (Rattus norvegicus [5]): Active
inhibition (Rattus norvegicus [6]): Active
inhibition (Rattus norvegicus [7]): Active
SMILES: C[C@H]1O[C@H](O[C@H]2[C@H](O)[C@@H](O)[C@@H](O[C@H]3[C@H](O)[C@@H](O)C(O)O[C@@H]3CO)O[C@@H]2CO)[C@H](O)[C@@H](O)[C@@H]1N[C@H]1C=C(CO)[C@@H](O)[C@H](O)[C@H]1O (some centres not stated) [ACARBOSE]
Activity (Mus musculus [3]): Active
Activity (Mus musculus [4]): Active
